Among the data in DBAASP are MIC values, retold here.

The structures appear in SMILES notation. ≈ marks a conversion by molar mass, not a printed value. Where “and” joins values, the source holds several entries; their conditions need not be identical. Equal entries are not always repeated.

Common to all, as to test: ≥ marks a high value that may be exact or a test limit, other limits are often not marked, values filed in µg/mL are converted to µM
Test [1] has as its system Staphylococcus aureus.
Test [2] has as its system Streptococcus sanguinis.
Test [3] deals with Streptococcus mutans.
Test [4] concerns Acinetobacter baumannii.
In test [5] the test system is Staphylococcus aureus ATCC 25923.
Test [6] relates to Escherichia coli ATCC 25922.
The subject of test [7] is Burkholderia cepacia.
Test [8] has as its system Candida albicans.
Test [9] has as its system Moraxella catarrhalis.
Test [10] relates to Klebsiella pneumoniae.
Test [11] relates to Staphylococcus aureus ATCC 43300.
Test [12] deals with Enterococcus faecium.
Test [13] has as its system Pseudomonas aeruginosa ATCC 27853.
Test [14] concerns Vibrio cholerae CUN 09.
Test [15] deals with Bordetella bronchiseptica CUN 11844-99.
Test [16] deals with Pseudomonas aeruginosa CUN 4158-02.
Test [17] relates to Salmonella enterica serovar Minnesota R60.
Test [18] concerns Escherichia coli ESBL.
For test [19], the system named is Staphylococcus aureus CUN 3792-99.
Test [20] relates to Acinetobacter baumannii ATCC 19506.
For test [21], the system named is Staphylococcus aureus ATCC 29213.
Test [22] deals with Salmonella enterica subsp. enterica serovar Typhimurium ATCC 14028.
Test [23] deals with Candida krusei CGMCC 2.1857.
Test [24] deals with Escherichia coli 1005.
Test [25] relates to Salmonella enterica subsp. enterica serovar Pullorum ATCC 7913.
Test [26] deals with Staphylococcus epidermidis ATCC 12228.
Test [27] has as its system Candida parapsilosis CGMCC 2.3989.
Test [28] relates to Candida tropicalis CGMCC 2.1975.
The test system of test [29] is Staphylococcus aureus ATCC 12600.
Test [30] has as its system Candida albicans ATCC 14053.
The test system of test [31] is Escherichia coli ATCC 11775.
Test [32] has as its system Micrococcus luteus ATCC 49732.

`NC(=O)[C@H](Cc1ccccc1)NC(=O)[C@H](Cc1ccccc1)NC(=O)[C@H](Cc1ccccc1)NC(=O)[C@@H](N)Cc1ccccc1` [FFFF]: the minimal inhibitory concentration (MIC) is 583 µM (≈ 353 µg/mL) in test [1] and at least 291 µM in [2].

As for `NCCCC[C@H](NC(=O)CNC(=O)[C@H](CCCCN)NC(=O)[C@H](Cc1ccccc1)NC(=O)[C@H](CCCCN)NC(=O)[C@H](Cc1c[nH]c2ccccc12)NC(=O)[C@H](CCCN=C(N)N)NC(=O)[C@H](Cc1ccccc1)NC(=O)[C@H](CCCN=C(N)N)NC(=O)[C@H](CCCN=C(N)N)NC(=O)[C@H](Cc1ccc(O)cc1)NC(=O)[C@H](CCCCN)NC(=O)[C@H](CCCCN)NC(=O)[C@H](CS)NC(=O)CN)C(=O)N[C@@H](Cc1ccccc1)C(=O)N[C@@H](Cc1c[nH]c2ccccc12)C(=O)N[C@@H](Cc1ccccc1)C(=O)N[C@@H](Cc1c[nH]c2ccccc12)C(=O)NCC(N)=O` [GCKKYRRFRWKFKGKFWFWG], the MIC in test [3] was 11.8 µM (≈ 32 µg/mL); in [4] it was at least 47.2 µM; in [5], 11.8 µM (≈ 32 µg/mL); in test [6], 47.2 µM (≈ 128 µg/mL); in [7], 11.8 µM (≈ 32 µg/mL); in test [8], 94.4 µM (≈ 256 µg/mL). The MIC was 11.8 µM (≈ 32 µg/mL) in test [9]; above 47.2 µM in test [10]; 11.8 µM (≈ 32 µg/mL) in test [11]; 11.8 µM (≈ 32 µg/mL) in test [12]; 94.4 µM (≈ 256 µg/mL) in test [13]; at least 94.4 µM in [14]. The minimum inhibitory concentration (MIC) was 11.8 µM (≈ 32 µg/mL) in test [15]; at least 47.2 µM in test [16]; 11.8 µM (≈ 32 µg/mL) in test [17]; ≥ 47.2 µM and 23.6 µM in [18]; at least 47.2 µM in [19]; at least 47.2 µM in test [20].

For the compound `CC(C)C[C@H](NC(=O)[C@H](CCCN=C(N)N)NC(=O)[C@H](CC(C)C)NC(=O)[C@H](CC(C)C)NC(=O)[C@H](CC(C)C)NC(=O)[C@H](CCCN=C(N)N)NC(=O)[C@H](CC(C)C)NC(=O)[C@H](CCCN=C(N)N)NC(=O)[C@@H](N)CCCN=C(N)N)C(=O)N[C@@H](CCCN=C(N)N)C(=O)N[C@@H](CCCN=C(N)N)C(N)=O` [RRLRLLLRLRR], the MIC in test [5] was found to be 4 µM (≈ 6.08 µg/mL); in [21], 16 µM (≈ 24.3 µg/mL); in test [8], 4 µM (≈ 6.08 µg/mL); in test [22], 4 µM (≈ 6.08 µg/mL); in test [23] it was 4 µM (≈ 6.08 µg/mL); in [24] it was 4 µM (≈ 6.08 µg/mL). Moreover, the minimum inhibitory concentration (MIC) in [25] was 2 µM (≈ 3.04 µg/mL); in [11], 8 µM (≈ 12.2 µg/mL); in [26], 4 µM (≈ 6.08 µg/mL); in [27] it was at least 64 µM; in [28] it was 2 µM (≈ 3.04 µg/mL).

On to `CSCC[C@H](NC(=O)[C@@H](NC(=O)[C@@H](N)[C@@H](C)O)[C@@H](C)O)C(=O)N1CCC[C@H]1C(=O)N[C@@H](CC(C)C)C(=O)N[C@@H](Cc1c[nH]c2ccccc12)C(=O)O` [TTMPLW], for which the MIC in test [29] was at least 193 µM; in test [30], at least 144 µM; in test [31], at least 193 µM; in test [32], at least 64 µM.

As usually defined, the MIC is the lowest concentration found to suppress growth.
